Data reported in US12569470B2, “Vasodilator and use thereof” (Bioradical Research Institute Corp., priority 2019, dated 2026).

Legend:
[1] = Water solubility noted at synthesis; assay type: physicochemical; details: noted for the isolated crystal
Description: 3.58 g of 3-methyl-1-phenyl-5-pyrazolone (hereinafter also referred to as “edaravone”), 2.59 g of malonaldehyde dianilide hydrochloride, and 20 ml of ethanol were added to a reactor and dissolved. To the obtained solution, 2.04 g of triethylamine and 0.4 ml of water were added and stirred for 1 hour at room temperature (about 25° C.; hereinafter, the same applies). After the stirring, the resultant was further reacted for 1 hour at 50° C. After discharging the obtained reaction solution to 100 ml of 1N hydrochloric acid, the mixture was sufficiently stirred and the precipitate was filtered. The resulting cake was washed with water. The cake was added to 200 ml of an aqueous sodium hydroxide solution having a 1% by weight concentration and completely dissolved by heating with stirring. Next, the dissolved solution was stirred for 3 hours after cooling to room temperature. Then, the liquid containing the obtained precipitate was filtered, and then the cake was washed with water. […] Note that the melting point of ED2AP was 249° C., which was water-soluble.
3 ml of dimethylformamide was added to a reactor and the exterior of the reactor was cooled with ice water. 1.75 g of phosphorus oxychloride was slowly dropped into the reactor (Reaction Solution A). In another reactor, 1.78 g of edaravone was dissolved in 5 ml of dimethylformamide (Reaction Solution B). […]

rat neuroid cells B50 = experiment: Cytoprotection against singlet oxygen (Rose Bengal + G-LED), Alamar Blue fluorescence; assay type: cell-based; details: 0, 12.5, 25, 50, or 100 μmol/1, RB 200 nmol/1 + G-LED 5 minutes, negative control being 100, FIG. 3
Description: Edaravone, ED2AP and BisEp-C3 were examined for whether they had the function of alleviating neuronopathy. Specifically, singlet oxygen was generated by combining Rose Bengal (RB), which is a sensitizer, with green light (G-LED), and the function of alleviating the cytotoxicity of the generated singlet oxygen was examined with the cellular activity being an indicator.
First, rat neuroid cells B50 were cultured in 12-well dishes at 2×10^5 cells/well (medium: RPMI-1640 medium containing 5% FCS) overnight. After the culturing, the medium of each well was replaced with HBSS (1,000 μl/well; phenol red-free Ca+, Mg+) containing 200 nmol/1 RB and edaravone, ED2AP, or BisEp-C3 having a predetermined concentration (0, 12.5, 25, 50, or 100 μmol/1). The dish was then irradiated with G-LED for 5 minutes to generate singlet oxygen. Thereafter, the medium of each well was replaced with 1,000 μl of HBSS, and Alamar Blue was added. The dish was then allowed to react for about 2 hours in an incubator at 37° C. and 5%CO2. After the reaction, fluorescence intensity (excitation wavelength: λ- 560 nm, fluorescence wavelength: λ-595 nm) was measured with a plate reader (infinite200, Tecan Trading AG). In this experimental system, the higher the cellular activity, the more Alamar Blue is taken up and the higher the fluorescence intensity. As a control, fluorescence intensity was measured in the same manner except that sodium azide (Azide, NaN3) was added instead of the compounds so as to achieve a concentration of 4 mmol/1. As a negative control (NC), fluorescence intensity was measured in the same manner except that RB was not added. The relative value of the fluorescence intensity in the sample to which each compound was added was calculated with the fluorescence intensity of the negative control being 100.

In the case of `CC1=NN(c2ccccc2)C(=O)/C1=C/C=C/c1c(C)nn(-c2ccccc2)c1O` [ED2AP, 2,4-dihydro-4-[3-(5-hydroxy-3-methyl-1-phenyl-1H-pyrazol-4-yl)-2-propen-1-ylidene]-5-methyl-2-phenyl-3H-pyrazol-3-one], the solubility in water [1] is reported as “water-soluble” and the “relative value of the fluorescence intensity” value (rat neuroid cells B50) is reported as “recovered in a concentration-dependent manner”.

With `CCN1N=C(C)/C(=C\C=C\c2c(C)nn(CC)c2O)C1=O` [BisEp-C3, 2,4-dihydro-4-[3-(1-ethyl-5-hydroxy-3-methyl-1H-pyrazol-4-yl)-2-propen-1-ylidene]-2-ethyl-5-methyl-3H-pyrazol-3-one] the solubility in water [1] was “water-soluble” and the “relative value of the fluorescence intensity” value (rat neuroid cells B50) was “recovered in a concentration-dependent manner”.
